Measurements taken from US20220218680A1, “TREATMENTS OF HEREDITARY ANGIOEDEMA” (KALVISTA PHARMACEUTICALS LIMITED, priority 2019, published 2022).

Experiments:
[1] = molecular target: T1, Human plasma kallikrein (Protogen) (Homo sapiens, UniProt P03952); assay: Plasma kallikrein inhibitory activity in vitro (purified enzyme, fluorogenic substrate); format: biochemical; conditions: 25° C., substrate H-DPro-Phe-Arg-AFC
T1 construct: purchased Protogen
Method: Human plasma kallikrein (Protogen) was incubated at 25° C. with the fluorogenic substrate H-DPro-Phe-Arg-AFC and various concentrations of the test compound. Residual enzyme activity (initial rate of reaction) was determined by measuring the change in […] at 410 nm and the IC50 value for the test compound was determined.

purified PKa = purified PKa (Homo sapiens, UniProt P03952); assay: Rate of formation of the enzyme-inhibitor complex (Kon); format: biochemical
Method: The rate of formation of the enzyme-inhibitor complex (Kon) was determined using purified PKa rapidly mixed with a solution containing fluorogenic substrate and a concentration range of inhibitor. The time-dependent establishment of inhibition was then used to calculate the rate of formation of the enzyme-inhibitor complex for each concentration of inhibitor. The Kon was calculated by plotting the rate of inhibition versus the inhibitor concentration. Data in Table 1 are presented in μM^−1 sec^−1.

[2] = molecular target: T2, plasma kallikrein in pre-activated undiluted human plasma (Homo sapiens, UniProt P03952); assay: Inhibition of enzyme activity of pre-activated undiluted plasma (compound added after DXS); format: biochemical; conditions: added 3.5 minutes post DXS; compound 300, 1000, 3000 nM; C1-INH 3000 nM (FIG. 3B)
T2 construct: from tissue
Method: The ability of the compound to inhibit the enzyme activity of pre-activated plasma was assessed by addition of the compound after DXS stimulation. Aliquots of plasma (20 μL) were mixed with a 2.5 μL solution containing […] fluorogenic substrate (H-DPro-Phe-Arg-AFC) and a 2.5 μL solution of dextran sulphate (DXS; 100 μg/mL) which acted as an activator of the plasma kallikrein-kinin pathway. Enzyme activity was immediately measured by monitoring the accumulation of fluorescence liberated from the substrate by substrate cleavage over 16 minutes. At 3.5 minutes post DXS addition 5 μl of inhibitors or water control are were added into each well. The compound was tested at concentrations of 300, 1000 and 3000 nM. C1-INH at a concentration of 3000 nM and vehicle controls were also included.

[3] = molecular target: PKa in DXS-activated plasma (Homo sapiens, UniProt P03952); assay: Catalytic activity of PKa in dextran sulfate-activated plasma (inhibitor added before DXS); format: biochemical; conditions: read-out: IC50 plasma enzyme
Method: Catalytic activity of PKa in dextran sulfate-activated (DXS, Sigma; 10 μg/ml) plasma (1:4 diluted or undiluted, VisuCon-F control plasma, Affinity Biologicals Inc) was determined by the time-dependent hydrolysis of fluorogenic substrate.

[4] = test system: HK cleavage by PKa in undiluted citrated human plasma; assay: Protection of HK from PKa-mediated cleavage in DXS-stimulated HAE and control plasma (WES immunoassay); format: biochemical
Method: High molecular weight kininogen (HK) cleavage in undiluted citrated human plasma was induced by contact system activation with dextran sulfate (DXS, Sigma #31395-10G; 6.25 μg/ml) on wet ice. […] HAE plasma was obtained from HAE subjects (n=6) and C1-inhibitor deficiency was confirmed by western blotting. Protection of HK from PKa mediated cleavage in DXS-stimulated whole undiluted plasma was then determined by two methods; traditional western blotting and a semi-automated capillary-based immunoassay.
Preparation of samples: Combine one part 5× fluorescent master mix with four parts of the 1:200 plasma sample. Vortex to mix. Heat the samples+fluorescent master mix and the biotinylated ladder at 95° C. for 5 minutes, vortex, and load onto the WES plate. Monoclonal anti-human HK antibody was used for this chemiluminescence-based detection method using the Wes System (ProteinSimple).
Analysis: Collect the peak area measurement obtained in the Compass software (cbz file) for the full-length HK molecular weight of the respective time-point sample with DXS-induced activation. The peak area is defined as the area calculated for the spectral peak profile for HK. To measure the plasma kallikrein inhibition by the compound, the percent full-length HK detected was calculated.

[5] = Phase 2 study Part 1: pharmacokinetics in HAE patients; format: in vivo; conditions: human, plasma, 600 mg single oral dose, n = 27, preliminary, read-out: Cmax Mean (95% CI)
Method: In Part 1, subjects will receive a single oral dose of 600 mg of the compound to investigate the safety, PK and PD of the compound during the intercritical period between HAE attacks.
Part 1: Blood samples for PK and PD measurements will be collected at the following timepoints: Pre-dose (0 h), 15 min, 30 min, 45 min, 1 h, 1.5 h, 2 h, 3 h, and 4 h post-dose. Vital signs (systolic blood pressure [SBP], diastolic blood pressure [DBP], pulse rate [PR], respiratory rate [RR] and body temperature) will be measured at pre-dose (0 h), 1 h, and 4 h post-dose. Samples for post-treatment safety laboratory assessments will be taken with the 4 h PK/PD samples.
Non-compartmental PK parameters will include maximum concentration in plasma (Cmax), time to reach Cmax in plasma (tmax), and area under the curve from time 0 to last sample (AUC0-t). Compartmental PK modelling will describe the PK of the compound and generate underlying Cmax, tmax, AUC, apparent clearance (CL/F), apparent volume of distribution (Vd/F) and estimated terminal elimination half-life (t½).
The PK parameters of the compound will be determined from the individual concentration versus time data using Phoenix WinNonlin. In case of a deviation from the theoretical time, the actual time of blood sample will be used in the calculation of the derived PK parameters. […]

[6] = Phase 1 multiple dose study: safety, tolerability and ECG; format: in vivo, human; conditions: 3 x 600 mg every 8, 4 or 2 hours, total 1800 mg, healthy adults
Method: This is a phase 1, double-blind, placebo-controlled, multiple-dose, multiple-cohort study to evaluate safety and tolerability of the compound as well as of the ECG effects of the compound formulated as 100 mg Film Coated Tablets in healthy adult male and female subjects.
During the study, oral doses of 600 mg of the compound as Film Coated Tablets (six 100 mg tablets) or 6 matching placebo tablets will be administered once every 8 hours (Cohort 1) every 4 hours (Cohort 2), or every 2 hours (Cohort 3 and 4) to healthy adult male and female subjects up to a total dose of 1800 mg. In Cohorts 1, 2 and 3, 6 subjects will receive the compound as 100 mg Film Coated Tablets and 2 subjects will receive the placebo for a total of 8 subjects per cohort. In Cohort 4, 12 subjects will receive the compound as 100 mg Film Coated Tablets and 6 subjects will receive the placebo for a total of 18 subjects.
A Holter monitor will be attached to each subject in order to continuously record ECGs. The monitor will be attached 1 hour before the first dose and will remain attached until after the final blood sample collection. The electrodes for the Holter monitor will be checked by a member of the clinic staff at appropriate intervals to ensure they are attached.

[7] = Phase 1 single ascending dose study: safety and tolerability; format: in vivo, human; conditions: phase I trial, healthy males, 5-600 mg oral
Excerpt: (§1) This study was a randomized, double-blind, placebo-controlled single ascending dose (SAD) and crossover studies for food effect and capsule/tablet formulations.

Plasma Kallikrein = molecular target: T3, Plasma Kallikrein (Homo sapiens, UniProt P03952); assay: Phase 1 SAD / food effect: ex vivo PKa catalytic activity in DXS-stimulated undiluted plasma
T3 construct: PD measurements were determined in dextran sulfate (DXS) stimulated undiluted plasma using a fluorogenic enzyme assay; from tissue; host or cells: undiluted plasma of healthy male volunteers after oral dosing, stimulated ex vivo with dextran sulfate
Method: (§2) PD measurements were determined in dextran sulfate (DXS) stimulated undiluted plasma using a fluorogenic enzyme assay and capillary based HK cleavage immunoassay.
The time until appearance of detectable amidolytic enzyme activity in DXS-stimulated plasma (lag time) was calculated from the catalytic activity assay. The detection sensitivity of the rate of catalytic activity in plasma based on using a Spark (Tecan) fluorimeter is a fluorescence increase to reach 1ΔF unit/sec.

[8] = Plasma free fraction by Rapid Equilibrium Dialysis; format: in vitro ADME; conditions: 5 μM in neat human plasma, dialysed 5 hrs at 37° C.
Method: Plasma free fraction was determined using “Rapid Equilibrium Dialysis” system (Thermo Scientific), test compounds were prepared at 5 μM in neat human plasma and dialysed against phosphate buffer for 5 hrs at 37° C. Quantification of the compound partitioned in two chambers of the dialysis device was performed via LCMS/MS. Fraction of compound unbound to plasma proteins presented as % of total.

[9] = test system: Factor XII (FXII) cleavage / FXIIa generation; assay: Phase 1 SAD: ex vivo DXS-stimulated generation of FXIIa, Wes immunoassay; format: in vivo, human; conditions: 600 mg oral capsules, up to 12 hrs post-dose
Excerpt: (§3) DXS-stimulated cleavage of plasma prekallikrein and Factor XII (FXII) were quantified by capillary-based immunoassay on the Wes System (ProteinSimple) analogously.

HK cleavage = assay: Phase 1 SAD: ex vivo DXS-stimulated HK cleavage, capillary-based immunoassay (Wes); format: in vivo, human
Method: as §2
DXS-stimulated cleavage of HK, in undiluted plasma was quantified by capillary-based immunoassay on the Wes System (ProteinSimple) using monoclonal anti-HK antibody and chemiluminescence-based detection. Plasma kallikrein mediated HK cleavage in undiluted citrated human plasma was induced by contact system activation with DXS (6.25 μg/ml) at 4° C. in selected samples from the SAD phase.

[10] = Phase 1 single ascending dose study: plasma pharmacokinetics (LC MS/MS); format: in vivo, human; conditions: oral capsule, fasted, 5 mg to 600 mg
Method: as §1
Samples for pharmacokinetic (PK) and PD assessment were taken at repeated intervals over 48 hours.
Plasma samples used for PK assessment were analysed using a validated liquid chromatography tandem mass spectrometry (LC MS/MS) method.

[11] = test system: plasma prekallikrein (PPK) cleavage; assay: Phase 1 SAD: ex vivo DXS-stimulated cleavage of plasma prekallikrein, Wes immunoassay; format: in vivo, human; conditions: 600 mg oral capsules, up to 12 hrs post-dose
Excerpt: as §3

[12] = test system: HK cleavage by PKa in undiluted plasma; assay: DXS-activated cleavage of HK in undiluted plasma (immunoblot); format: biochemical; conditions: 300 nM PKa inhibitor, 20 min incubation with DXS
Method: DXS-activated cleavage of HK in undiluted plasma was performed in the absence or presence of 300 nM PKa inhibitor and quantified by SDS-PAGE gel electrophoresis, using 7.5% Criterion TGX Precast gels (Biorad). Transfer was made onto Immunobilon-FL PVDF membrane. Image analysis was done using the LICOR imaging system. Mouse monoclonal anti-HK antibody (MAB15692, R&D systems) was used for traditional immunoblotting. Data presented as % of HK remaining after 20 min incubation with DXS compared to HK levels in unactivated plasma (Table 1).

[13] = background, literature and labels; cited from earlier work

T3 sequence (P03952 391-638 limits assumed): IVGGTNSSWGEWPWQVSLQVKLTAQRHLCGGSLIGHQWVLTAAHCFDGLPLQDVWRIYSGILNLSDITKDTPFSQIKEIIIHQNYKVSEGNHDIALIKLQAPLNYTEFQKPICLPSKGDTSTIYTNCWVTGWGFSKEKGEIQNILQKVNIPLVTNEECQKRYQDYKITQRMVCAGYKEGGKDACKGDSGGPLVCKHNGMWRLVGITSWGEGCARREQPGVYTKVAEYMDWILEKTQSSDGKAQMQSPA
T3 sequence (P03952 20-390 partner limits assumed): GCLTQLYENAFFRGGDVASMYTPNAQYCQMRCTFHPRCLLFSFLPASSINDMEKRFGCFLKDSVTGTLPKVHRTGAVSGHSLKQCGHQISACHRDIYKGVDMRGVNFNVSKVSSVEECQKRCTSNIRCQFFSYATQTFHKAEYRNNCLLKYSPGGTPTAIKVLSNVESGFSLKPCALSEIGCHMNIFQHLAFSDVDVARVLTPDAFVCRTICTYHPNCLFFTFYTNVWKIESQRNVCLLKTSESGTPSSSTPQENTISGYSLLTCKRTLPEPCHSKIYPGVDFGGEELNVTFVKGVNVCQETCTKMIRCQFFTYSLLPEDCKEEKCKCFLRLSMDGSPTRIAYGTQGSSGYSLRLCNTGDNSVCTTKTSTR
T1 sequence (P03952 391-638 limits assumed): as the sequence (P03952 391-638 limits assumed) above
T1 sequence (P03952 20-390 partner limits assumed): as the sequence (P03952 20-390 partner limits assumed) above
T2 sequence (P03952 391-638 limits assumed): as the sequence (P03952 391-638 limits assumed) above
T2 sequence (P03952 20-390 partner limits assumed): as the sequence (P03952 20-390 partner limits assumed) above
purified PKa, sequence (P03952 391-638 limits assumed): as the sequence (P03952 391-638 limits assumed) above
purified PKa, sequence (P03952 20-390 partner limits assumed): as the sequence (P03952 20-390 partner limits assumed) above
PKa in DXS-activated plasma, sequence (P03952 391-638 limits assumed): as the sequence (P03952 391-638 limits assumed) above
PKa in DXS-activated plasma, sequence (P03952 20-390 partner limits assumed): as the sequence (P03952 20-390 partner limits assumed) above

C1-INH: C1 inhibitor (Sigma Cat #E0518), used as a therapeutic benchmark for HAE [Compound C1-INH]
IC50 [1]: 50 nM | Kon (purified PKa): 40000 M⁻¹ s⁻¹ | inhibition of enzyme activity after activation of plasma [2]: slower action | IC50 [3]: 1700 nM

COCc1nn(Cc2ccc(Cn3ccccc3=O)cc2)cc1C(=O)NCc1nccc(OC)c1F [compound of Formula A, N-[(3-fluoro-4-methoxypyridin-2-yl)methyl]-3-(methoxymethyl)-1-({4-[(2-oxopyridin-1-yl)methyl]phenyl}methyl)pyrazole-4-carboxamide]
protection against HK cleavage ([4]; HAE plasma stimulated with dextran sulfate): dose dependent protection against HK cleavage | protection against HK cleavage ([4]; healthy control plasma stimulated with dextran sulfate): dose dependent protection against HK cleavage | Cmax [5]: 5910 ng/mL | effects on the studied ECG parameters [6]: No clinically relevant effects | serious adverse events [6]: No serious adverse events | severity of reported adverse events [6]: mild | serious adverse events [7]: No serious adverse events | tolerability [7]: no tolerability signals | lag time (time until appearance of catalytic activity during contact system activation) (Plasma Kallikrein; 600 mg dose, tablet formulation): increases the time until appearance of catalytic activity | food effect on the pharmacodynamic (PD) profile (Plasma Kallikrein; 600 mg tablet, fed vs fasted): no significant food-effect | fraction unbound at 5 h, 5 μM [8]: 0.25 | effect on generation of FXIIa in DXS-activated plasma [9]: reduces the generation of FXIIa | effect on HK cleavage in DXS-activated plasma (HK cleavage; 600 mg oral capsules, up to 12 hrs post-dose): reduces HK cleavage | duration of protection of HK from DXS-activated cleavage in undiluted plasma (HK cleavage; single 600 mg dose): at least 10 hr | plasma exposure [10]: rapid and dose-dependent plasma exposure | effect on PPK cleavage in DXS-activated plasma [11]: reduces PPK cleavage | HK protection (% of HK remaining vs unactivated plasma) [12]: 85%

N#Cc1cccc([C@@H](NCC2CC2)c2ccc(F)c(NC(=O)c3cc(C(F)(F)F)nn3-c3cccc(CN)c3)c2)c1 [Berotralstat, reference compound]
reported adverse reactions / risks [13]: more gastrointestinal adverse effects

Ecallantide
reported adverse reactions / risks [13]: risk of anaphylactic reactions

B1: lanadelumab: recombinant fully human IgG1 kappa light chain monoclonal antibody, active substance of Takhzyro (antibody, chains of the INN, looked up, V domains shown)
VH: EVQLLESGGGLVQPGGSLRLSCAASGFTFSHYIMMWVRQAPGKGLEWVSGIYSSGGITVYADSVKGRFTISRDNSKNTLYLQMNSLRAEDTAVYYCAYRRIGVPRRDEFDIWGQGTMVTVSS
VL: DIQMTQSPSTLSASVGDRVTITCRASQSISSWLAWYQQKPGKAPKLLIYKASTLESGVPSRFSGSGSGTEFTLTISSLQPDDFATYYCQQYNTYWTFGQGTKVEIK
reported adverse reactions / risks [13]: hypersensitivity, injection site pain, injection site erythema, and injection site bruising
